One experiment deals with T1, rat TRPV1 (Rattus norvegicus, UniProt O35433).
T1 construct: expressed in transfected cells; host or cells: Xenopus laevis oocytes injected with TRPV1 cRNA
In words: Whole-cell currents in Xenopus laevis oocytes expressing TRPV1 (double-electrode voltage clamp). The following applies: ruthenium red 100 μM; RTX 10 nM repeated application. The class given is cell-based. The procedure: Rat TRPV1 dcRNA. Cloned rat TRPV1 was obtained from the Julius Lab at the University of California San Francisco. TRPV1 cRNA was obtained using standard techniques known to those of skill in the art.
(§1) Electrophysiology. Whole-cell and single-channel currents were recorded from rat DRG neurons in culture and from Xenopus laevis oocytes injected with rat TRPV1 cRNA. Animals were cared for according to the standards of the National Institutes of Health (NIH). All animal use protocols were approved by Southern Illinois University School of Medicine Animal Care Committee.
Oocytes were obtained by an abdominal incision after anaesthetizing the frog by immersion in a 0.05% solution of 3-aminobenzoic acid ethyl ester (MS222). Animals were killed by a subcutaneous injection of a 2% solution of MS222 according to NIH guidelines. One day after separating the oocytes from the follicular layer, 50-70 nl TRPV1 cRNA was injected using a Drummond Nanoject (Drummond Scientific Co., Broomall, Pa., USA). Oocytes were used for recording from 3 days after the injection. Double-electrode voltage clamp was performed using a Warner amplifier (Warner Instruments, Hamden, Conn., USA). Data were digitized and stored on videotape or directly stored on the computer using a LabView interface (National Instruments, Austin, Tex., USA). Experiments were performed at 21-23° C. Oocytes were placed in a Perspex chamber superfused (5-10 ml min^−1) with Ca^2+-free Ringer solution containing (mM): NaCl 100, KCl 2.5 and Hepes 5; pH adjusted to 7.35 with NaOH. Current-voltage relationships were measured using 1-s voltage ramps from −80 to +80 mV.
This example tests the activation of whole-cell currents in oocytes by RTX. Whole-cell currents were recorded from oocytes heterologously expressing TRPV1. […] Agonist-induced currents are shown after subtracting the leak current in the absence of the agonist. […] In order to quantify this, we calculated the ratio of outward and inward currents. […] PKC activation increases sensitivity as well as TRPV1 translocation. […] (Szallasi et al. 1990b; Caterina et al. 1997; Marshall et al. 2003.)

The target in the next experiment is T2, native TRPV1 (Rattus norvegicus, UniProt O35433).
T2 construct: RTX-induced membrane currents on native TRPV1 in embryonic DRG neurons grown in culture; endogenous in cells; host or cells: primary rat E18 DRG neurons
T2 sequence (O35433 whole entry): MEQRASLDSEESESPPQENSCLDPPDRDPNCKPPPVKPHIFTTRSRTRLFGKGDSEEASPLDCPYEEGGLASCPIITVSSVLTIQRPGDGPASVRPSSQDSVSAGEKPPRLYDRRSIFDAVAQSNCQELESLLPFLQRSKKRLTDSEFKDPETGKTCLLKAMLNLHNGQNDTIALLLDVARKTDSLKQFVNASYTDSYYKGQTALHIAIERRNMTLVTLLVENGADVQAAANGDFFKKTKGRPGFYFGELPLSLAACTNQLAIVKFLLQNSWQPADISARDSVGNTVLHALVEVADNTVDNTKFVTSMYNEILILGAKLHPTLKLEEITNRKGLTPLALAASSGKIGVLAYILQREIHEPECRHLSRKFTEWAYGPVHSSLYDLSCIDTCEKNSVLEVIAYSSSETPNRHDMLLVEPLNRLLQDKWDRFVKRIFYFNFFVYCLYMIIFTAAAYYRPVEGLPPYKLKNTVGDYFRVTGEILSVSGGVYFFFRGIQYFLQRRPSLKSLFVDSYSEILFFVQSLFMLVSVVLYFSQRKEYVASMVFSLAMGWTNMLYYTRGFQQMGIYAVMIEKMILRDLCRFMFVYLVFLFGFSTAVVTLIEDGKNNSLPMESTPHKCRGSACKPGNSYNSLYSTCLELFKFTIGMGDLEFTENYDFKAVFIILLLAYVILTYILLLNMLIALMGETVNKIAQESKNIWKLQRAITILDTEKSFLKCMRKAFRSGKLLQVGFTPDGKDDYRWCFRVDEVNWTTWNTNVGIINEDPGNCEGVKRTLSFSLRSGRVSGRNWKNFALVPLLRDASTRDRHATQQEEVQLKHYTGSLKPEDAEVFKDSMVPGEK
In words: Whole-cell currents in cultured embryonic DRG neurons (patch clamp). The class given is cell-based. As to conditions: capsazepine 10 μM. As to the method: as §1
Primary DRG neuronal cultures were prepared from embryonic day 18 (E18) rat embryos. Adult pregnant rats were killed with an overdose of isoflurane. DRG were dissected and the cells were dissociated by triturating with a fire-polished glass pipette. Cells were cultured in Neurobasal medium (Life Technologies, Buffalo, N.Y., USA), supplemented with 10% fetal bovine serum (FBS), and grown on poly-D-lysine-coated glass coverslips. Cells were used from 5 to 15 days after plating. Small diameter (<30 μm) rounded neurons were selected for patch-clamp experiments. […] The Giga-seal patch-clamp technique was used to record whole-cell currents. For perforated-patch recordings, the bath solution contained (mM): sodium gluconate 140, KCl 2.5, Hepes 10, MgCl2 1 and ethylene glycol bis(2-aminoethyl ether)-N,N,N′N′-tetraacetic acid (EGTA) 1.5 (pH adjusted to 7.35 with NaOH), and the pipette solution contained (mM): sodium gluconate 130, NaCl 10, KCl 2.5, Hepes 10, MgCl2 1, EGTA 1.5 and 240 μg/ml^−1 amphotericin B (pH adjusted to 7.35 with NaOH). For current-clamp experiments the pipette solution contained (mM): potassium gluconate 130, NaCl 10, MgCl2 1, EGTA 0.2, K2ATP 1 and Hepes 10; pH adjusted to 7.35 with NaOH. Extracellular solution for current- and voltage-clamp experiments contained (mM): NaCl 140, KCl 4, MgCl2 1 and Hepes 10; pH adjusted to 7.35 with NaOH. Currents were recorded using a WPC 100 patch-clamp amplifier (E.S.F. Electronic, Goettingan, Germany). Data were filtered at 10 kHz, digitized (VR-10B, Instrutech Corp., Great Neck, N.Y., USA) and stored on videotapes or directly stored in the computer using a LabView interface. For analysis of whole-cell currents, data were filtered at 1 kHz (−3 db frequency with an 8-pole low-pass Bessel filter, Warner Instruments, LPF-8) and digitized at 2 kHz.
This example tests the activation of whole-cell current in DRG neurons by RTX. We determined the properties of RTX-induced membrane currents on native TRPV1 in embryonic DRG neurons grown in culture. […] Protons were not used to elicit currents because of the presence of acid-sensitive ion channels in these neurons.

Each structure is given as a SMILES string.

T1 sequence (O35433 whole entry): as above

Regarding `N.N.N.N.N.N.N.N.N.N.N.N.N.N.[Cl-].[Cl-].[Cl-].[Cl-].[Cl-].[Cl-].[O-2].[O-2].[Ru+3].[Ru+3].[Ru+4]` [ruthenium red, reference compound], the “block of RTX-induced current” value on rat TRPV1 is given as “readily blocked”.

Turning to `Oc1cc2c(cc1O)CN(C(=S)NCCc1ccc(Cl)cc1)CCC2` [capsazepine], the “block of current induced by capsaicin (1 μM) and RTX (10 nM)” value at native TRPV1 is “completely blocked”. The “rate of block induced by capsazepine” value at native TRPV1 (RTX-induced (10 nM) currents) came to 612.3 ± 219 s; at native TRPV1 (capsaicin-induced (1 μM) currents), 18.4 ± 2.8 s.

(Values after patent publication US20090209633A1, “Treatment of Pain With Resiniferatoxin and Related Analogs” (priority 2006, published 2009).)
